Data reported in the supplement of paper PMC10307832.

What was measured:
Test in all cases: relative viability (nuclei count vs DMSO), 5 days (fraction); higher = more cells survive
[1] = tested on: 201T
In short: (§1)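 One day after seeding in 1536-well plates, lung cancer cell lines were dosed by pin tool. Dosing was either single-drug or a fixed anchor-drug dose plus five library-drug doses (not always all listed) in √10 steps. After 5 days, nuclei were stained in one fix-and-stain step and counted on 4× images, and relative viability is the nuclei count of treated wells over that of vehicle wells, given as the median of duplicate plates.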

[2] = tested on: ABC-1
In short: as §1

[3] = tested on: CAL-12T
In short: as §1

[4] = tested on: ChaGo-K-1
In short: as §1

[5] = tested on: EMC-BAC-2
In short: as §1

[6] = tested on: H3255
In short: as §1

[7] = tested on: HOP-62
In short: as §1

[8] = tested on: LXF-289
In short: as §1

[9] = tested on: NCI-H1651
In short: as §1

[10] = tested on: NCI-H1734
In short: as §1

[11] = tested on: NCI-H1755
In short: as §1

[12] = tested on: NCI-H2009
In short: as §1

[13] = tested on: NCI-H2087
In short: as §1

[14] = tested on: NCI-H2126
In short: as §1

[15] = tested on: NCI-H3122
In short: as §1

[16] = tested on: NCI-H322M
In short: as §1

[17] = tested on: NCI-H441
In short: as §1

[18] = tested on: NCI-H596
In short: as §1

[19] = tested on: NCI-H647
In short: as §1

[20] = tested on: PC-14
In short: as §1

Question: What does the source list for `Cc1cnc(-c2cnc(NCCNc3ccc(C#N)cn3)nc2-c2ccc(Cl)cc2Cl)[nH]1` + CC(C)C[C@H](NC(=O)[C@H](Cc1ccccc1)NC(=O)c1cnccn1)B(O)O [Bortezomib] (partner 0.002 µM)?
Answer: relative viability ([1]; first compound 0.08 µM): 1.12; relative viability ([1]; first compound 0.253 µM): 0.973; relative viability ([1]; first compound 0.8 µM): 1.14; relative viability ([1]; first compound 2.53 µM): 1.1; relative viability ([2]; first compound 0.08 µM): 0.343; relative viability ([2]; first compound 0.253 µM): 0.257; relative viability ([2]; first compound 0.8 µM): 0.347; relative viability ([2]; first compound 2.53 µM): 0.252; relative viability ([3]; first compound 0.253 µM): 0.902; relative viability ([3]; first compound 2.53 µM): 0.975; relative viability ([4]; first compound 0.08 µM): 1.07; relative viability ([4]; first compound 0.253 µM): 0.886; relative viability ([4]; first compound 0.8 µM): 0.598; relative viability ([4]; first compound 2.53 µM): 0.991; relative viability ([5]; first compound 0.08 µM): 1.17; relative viability ([5]; first compound 0.253 µM): 1.07; relative viability ([5]; first compound 0.8 µM): 1.01; relative viability ([5]; first compound 2.53 µM): 1.07; relative viability ([6]; first compound 0.08 µM): 0.91; relative viability ([6]; first compound 0.253 µM): 0.563; relative viability ([6]; first compound 0.8 µM): 0.95; relative viability ([6]; first compound 2.53 µM): 0.656; relative viability ([7]; first compound 0.08 µM): 1.18; relative viability ([7]; first compound 0.253 µM): 0.772; relative viability ([7]; first compound 0.8 µM): 0.875; relative viability ([7]; first compound 2.53 µM): 0.907; relative viability ([8]; first compound 0.08 µM): 1.04; relative viability ([8]; first compound 0.253 µM): 0.946; relative viability ([8]; first compound 0.8 µM): 1.09; relative viability ([8]; first compound 2.53 µM): 1.11; relative viability ([9]; first compound 0.08 µM): 0.965; relative viability ([9]; first compound 0.253 µM): 0.883; relative viability ([9]; first compound 0.8 µM): 0.937; relative viability ([9]; first compound 2.53 µM): 0.92; relative viability ([10]; first compound 0.08 µM): 0.942; relative viability ([10]; first compound 0.253 µM): 0.897; relative viability ([10]; first compound 0.8 µM): 0.87; relative viability ([10]; first compound 2.53 µM): 0.734; relative viability ([11]; first compound 0.08 µM): 1.02; relative viability ([11]; first compound 0.253 µM): 0.889; relative viability ([11]; first compound 0.8 µM): 0.828; relative viability ([11]; first compound 2.53 µM): 0.994; relative viability ([12]; first compound 0.08 µM): 1.02; relative viability ([12]; first compound 0.253 µM): 0.682; relative viability ([12]; first compound 0.8 µM): 1.07; relative viability ([12]; first compound 2.53 µM): 0.891; relative viability ([13]; first compound 0.08 µM): 0.997; relative viability ([13]; first compound 0.253 µM): 0.683; relative viability ([13]; first compound 0.8 µM): 0.771; relative viability ([13]; first compound 2.53 µM): 0.808; relative viability ([14]; first compound 0.08 µM): 1.09; relative viability ([14]; first compound 0.253 µM): 1.09; relative viability ([14]; first compound 0.8 µM): 1.12; relative viability ([14]; first compound 2.53 µM): 1.15; relative viability ([15]; first compound 0.08 µM): 1.03; relative viability ([15]; first compound 0.253 µM): 0.925; relative viability ([15]; first compound 0.8 µM): 0.997; relative viability ([15]; first compound 2.53 µM): 0.972; relative viability ([16]; first compound 0.08 µM): 1.13; relative viability ([16]; first compound 0.253 µM): 1.1; relative viability ([16]; first compound 0.8 µM): 1.22; relative viability ([16]; first compound 2.53 µM): 1.31; relative viability ([17]; first compound 0.08 µM): 0.688; relative viability ([17]; first compound 0.253 µM): 0.352; relative viability ([17]; first compound 0.8 µM): 0.707; relative viability ([17]; first compound 2.53 µM): 0.617; relative viability ([18]; first compound 0.08 µM): 1.19; relative viability ([18]; first compound 0.253 µM): 0.802; relative viability ([18]; first compound 0.8 µM): 1.09; relative viability ([18]; first compound 2.53 µM): 1.12; relative viability ([19]; first compound 0.08 µM): 0.943; relative viability ([19]; first compound 0.253 µM): 0.836; relative viability ([19]; first compound 0.8 µM): 1.05; relative viability ([19]; first compound 2.53 µM): 0.994; relative viability ([20]; first compound 0.08 µM): 0.804; relative viability ([20]; first compound 0.253 µM): 0.84; relative viability ([20]; first compound 0.8 µM): 0.82; relative viability ([20]; first compound 2.53 µM): 0.814
